In patent US4404230A, “4-Hydroxy-1,2-Benzisothiazol-3(2H)-one-1,1-dioxides and salts thereof” (priority 1980, dated 1983):

What was measured:
thrombocyte aggregation = assay: Effect on thrombocyte aggregation induced by collagen; format: cell-based; conditions: 1×10^-4 mol/liter, collagen-induced
Method: The thrombocyte aggregation was measured according to Born and Cross [J. Physiol. 170, 397 (1964)] in platelet-rich plasma obtained by centrifuging citrate blood. The change in the maximum aggregation rate in % compared with a control, and the percent change in the "optical density" were the measured parameters. The aggregation was induced by collagen.

anesthetized cats = assay: Effect on the blood circulation in anesthetized cats; format: in vivo; conditions: 10 mg/kg i.v.
Method: In 3 adult anesthetized cats the following parameters were measured:
The arterial blood pressure in the Arteria carotis by means of a Statham pressure transducer;
The heart rate by means of a Grass-tachograph;
The respiration rate by means of a Fleisch pneumotachograph;
10 mg/kg of substance B as a solution in aqua dist. were administered i.v.

Rat = assay: Test for acute toxicity, rat; conditions: for Animals which died: 6 animals
Method: The acute toxicity was determined after oral administration of substance B to male and female mice, rats and dogs. The substance was administered to mice and rats in the form of a suspension in tylose and to dogs in the form of a solution in water.

Streptococcus Aronson = assay: Bacteriostasis, agar diffusion test; format: cell-based; conditions: 16,000 μg/ml
Method: (§1) Substance B was tested with regard to its bacteria- and fungi-inhibiting effect by the serial dilution test and agar diffusion test.

Sc. pyogenes ATCC 8688 = assay: Bacteriostasis, agar diffusion test; format: cell-based; conditions: 16,000 μg/ml
Method: as §1

[1] = tested on: Pseudomonas aeruginosa Hbg.; assay: Bacteriostasis, agar diffusion test; format: cell-based; conditions: 16,000 μg/ml
Method: as §1

[2] = tested on: Serratia marcescens ATCC 13880; assay: Bacteriostasis, agar diffusion test; format: cell-based; conditions: 16,000 μg/ml
Method: as §1

[3] = tested on: Escherichia coli ATCC 9637; assay: Bacteriostasis, agar diffusion test; format: cell-based; conditions: 16,000 μg/ml
Method: as §1

[4] = tested on: Staphylococcus aureus SG 511; assay: Bacteriostasis, agar diffusion test; format: cell-based; conditions: 16,000 μg/ml
Method: as §1

rats = assay: Effect on choleresis in rats; format: in vivo, Chbb:THOM-rats
Method: A cannula was tied to the ductus choledochus of anesthetized, fasted male Chbb:THOM-rats (SPF) having a body weight of 180-220 gm, and the rate of flow of bile liquid was registered via a drop counter. 100 or 200 mg/kg of substance B in aqua dist. solution were administered intraduodenally to each of 10 animals. A control group received only the solvent. The number of the drops received within 1 hour before the treatment was compared with the number of the drops received within 1-5 hours after treatment.
In Table 10 the average number of drops 1-5 hours after treatment is shown in percent, compared with the values before treatment.

taste testers = assay: Determination of the relative sweetening power in comparison to saccharose; format: in vivo; conditions: compared with 3% aqueous solution of saccharose
Description: The relative sweetening power (often also defined as degree of sweetness) of sweetening agents in comparison with saccharose (cane sugar) varies considerably with concentration. […] Therefore, for the determination of the relative sweetening power of the test compounds a 3% aqueous solution of saccharose was always used for comparison.

mice [5] = assay: Effect on maximum electroshock convulsions in mice; format: in vivo, Chbb:NMRI-mice; conditions: 200 mg/kg p.o.; for Number of protected animals: N = 10
Method: According to Swinyard, Brown and Goodman [J. Pharmacol. exp. Ther. 106, 319 (1952)], 200 mg/kg of substance B in aqua dist. solution were administered perorally to 10 male Chbb:NMRI-mice (SPF). After 30, 150 and 300 minutes tonic extensor spasms were induced by alternating current via head-electrodes (50 mA, 50 Hz, 2 sec. duration). Tonic extensor spasms of the extremities cannot be observed after treatment with substances having an anticonvulsive activity.

beagles = assay: Test for subacute toxicity in the dog; conditions: in vivo
Method: The test was carried out in each 3 male and 3 female beagles. Over a period of 5 weeks 750 mg/kg of substance B were administered orally.
After the test period of 5 weeks the animals were killed and the same organs as above were taken for histological examination.

eye of the rabbit = assay: Local compatibility in the eye of the rabbit (mucosa compatibility); format: in vivo
Description: Groups of 4 rabbits each of both sexes were given 1 drop of a 1% solution of substance B in aqua dist. into the conjunctival sack of the eye. […] The second eye of each animal served as control.

mice [6] = assay: Effect on motility of mice (sedative and stimulating effect); format: in vivo, Chbb:NMRI-mice; conditions: 200 mg/kg p.o.; for % motility: vs control
Method: Eight female Chbb:NMRI-mice (SPF) having a body weight from 20 to 26 g were tested in light beam cages after oral administration of the test compound in a suspension of 1% tylose. 30, 90 and 150 minutes after administration of the test compound, their motility was measured for 5 minutes each; a control group received only the solvent (tylose:carboxymethyl cellulose). The change in motility, given in percent with regard to that of the control group, was determined.

[7] = vs values before administration, N = 3

SMILES: O=C1NS(=O)(=O)c2cccc(O)c21.[Na]
- effect on thrombocyte aggregation (in words) (thrombocyte aggregation): does not show any effect on thrombocyte aggregation induced by collagen
- effect on arterial blood pressure, heart rate and respiration rate (in words) (anesthetized cats): does not show any effect on the arterial blood pressure, the heart rate and the respiration rate
- Change in % blood pressure (anesthetized cats; [7]): +1%
- Change in % heart rate (anesthetized cats; [7]): -1%
- Change in % respiration rate (anesthetized cats; [7]): -2%
- Animals which died (Rat; 10 g/kg oral, 1 day): 0
- Animals which died (Rat; 10 g/kg oral, 7 days): 0
- Animals which died (Rat; 10 g/kg oral, 14 days): 0
- deaths (in words) (Rat; 10 g/kg oral, during the observation time): no animals died
- behavior (Rat; rat, in vivo, po): completely normal behavior
- toxic symptoms (Rat; rat, in vivo, po): no toxic symptoms could be observed
- inhibiting effect (Streptococcus Aronson): did not show any inhibiting effect
- inhibiting effect (Sc. pyogenes ATCC 8688): did not show any inhibiting effect
- inhibiting effect [1]: did not show any inhibiting effect
- inhibiting effect [2]: did not show any inhibiting effect
- inhibiting effect [3]: did not show any inhibiting effect
- inhibiting effect [4]: did not show any inhibiting effect
- Choleresis in %, compared with the values before treatment (rats; 100 mg/kg i.d., 1 hour): 97%
- Choleresis, average number of drops (rats; 100 mg/kg i.d., 1 hour): 53.3 drops/ hr
- Choleresis in %, compared with the values before treatment (rats; 100 mg/kg i.d., 2 hours): 94%
- Choleresis, average number of drops (rats; 100 mg/kg i.d., 2 hours): 51.7 drops/ hr
- Choleresis in %, compared with the values before treatment (rats; 100 mg/kg i.d., 3 hours): 92%
- Choleresis, average number of drops (rats; 100 mg/kg i.d., 3 hours): 50.7 drops/ hr
- Choleresis in %, compared with the values before treatment (rats; 100 mg/kg i.d., 4 hours): 91%
- Choleresis, average number of drops (rats; 100 mg/kg i.d., 4 hours): 49.9 drops/ hr
- Choleresis in %, compared with the values before treatment (rats; 100 mg/kg i.d., 5 hours): 90%
- Choleresis, average number of drops (rats; 100 mg/kg i.d., 5 hours): 49.5 drops/ hr
- Choleresis in %, compared with the values before treatment (rats; 200 mg/kg i.d., 1 hour): 94%
- Choleresis, average number of drops (rats; 200 mg/kg i.d., 1 hour): 44.1 drops/ hr
- Choleresis in %, compared with the values before treatment (rats; 200 mg/kg i.d., 2 hours): 92%
- Choleresis, average number of drops (rats; 200 mg/kg i.d., 2 hours): 43.1 drops/ hr
- Choleresis in %, compared with the values before treatment (rats; 200 mg/kg i.d., 3 hours): 92%
- Choleresis, average number of drops (rats; 200 mg/kg i.d., 3 hours): 43.1 drops/ hr
- Choleresis in %, compared with the values before treatment (rats; 200 mg/kg i.d., 4 hours): 92%
- Choleresis, average number of drops (rats; 200 mg/kg i.d., 4 hours): 43.5 drops/ hr
- Choleresis in %, compared with the values before treatment (rats; 200 mg/kg i.d., 5 hours): 94%
- Choleresis, average number of drops (rats; 200 mg/kg i.d., 5 hours): 44.4 drops/ hr
- effect on choleresis (in words) (rats; 100 and 200 mg/kg i.d.): does not show any intraduodenal effects on choleresis in rats
- Relative sweetening power (Saccharose = 1) (taste testers): 210
- anticonvulsive activity (in words) (mice [5]): does not show any anticonvulsive activity
- Number of protected animals (mice [5]; 30 min): 0
- Number of protected animals (mice [5]; 150 min): 0
- Number of protected animals (mice [5]; 300 min): 0
- behavior (beagles): did not show any abnormal behavior
- histological examination of organs (beagles): No changes could be observed
- spontaneous deaths (beagles): Spontaneous deaths could not be observed
- change in the pupil (eye of the rabbit; 1% solution): no change in the pupil
- irritation of the conjunctiva (eye of the rabbit; 1% solution): No irritation of the conjunctiva
- change in the pupil (eye of the rabbit; 10%): no change in the pupil
- irritation of the conjunctiva (eye of the rabbit; 10%): No irritation of the conjunctiva
- incompatibility when dropped into the eye (in words) (eye of the rabbit; rabbit, in vivo): does not show any incompatibility
- effect on motility of mice (in words) (mice [6]): did not affect the motility of mice
- Motility of mice (mice [6]; 30-35 min): 92 ± 21 contacts/animal
- % motility (mice [6]; 30-35 min): 102%
- Motility of mice (mice [6]; 90-95 min): 84 ± 28 contacts/animal
- % motility (mice [6]; 90-95 min): 101%
- Motility of mice (mice [6]; 150-155 min): 49 ± 17 contacts/animal
- % motility (mice [6]; 150-155 min): 72%
